Reference: ChEMBL document CHEMBL4033655, “Part I: Design, synthesis and biological evaluation of novel pyrazole-benzimidazole conjugates as checkpoint kinase 2 (Chk2) inhibitors with studying their activities alone and in combination with genotoxic drugs” (Eur J Med Chem, 2017)

Test: Acute toxicity in Sprague-Dawley rat assessed as mortality administered orally as single dose measured up to 1 month
Settings: in vivo, po

## Cc1nn(-c2ccccc2)c(Oc2ccc(-c3nc4cc(C(=O)O)ccc4[nH]3)cc2)c1[N+](=O)[O-]
  LD50: 400 mg/kg
